Test results: US20120065126A1, “Pharmaceutical Compositions Containing Antifungal Peptides” (BASF SE, priority 2009, published 2012)

Key:
[1] = test system: Trichophyton rubrum (DSM21146); test: Short-term effect (CFU); format: cell-based
Procedure: (§1) For this purpose, the procedure was as follows.
MEP growth medium according to DSMZ:
30 g of malt extract (Becton, Dickinson and Company, Sparks, USA) 3 g of soya peptone (Becton, Dickinson and Company, Sparks, USA) make up to 1 liter, set pH 5.6
The growth test was effected as follows: an agar plate on which the Trichophyton rubrum culture had grown was rinsed with 5 ml of MEP medium.
1.5 ml reaction vessels were each filled with 1 ml of MEP medium and inoculated with 10 μl of the T. rubrum suspension. The concentration of the peptide solution in water or ZPT solution (zinc pyrithione, >96%, Sigma Aldrich) dissolved in DMSO was 2% (w/w).
(§2) The following growth was compared: • T. rubrum suspension and addition of P18 peptide with a final concentration in the 1.5 ml reaction vessel of 50 ppm after 5 minutes, 10 minutes, 20 minutes and 60 minutes • T. rubrum suspension and addition of P18 peptide with a final concentration in the 1.5 ml reaction vessel of 100 ppm after 5 minutes, 10 minutes, 20 minutes and 60 minutes • T. rubrum suspension and addition of P18 peptide with a final concentration in the 1.5 ml reaction vessel of 200 ppm after 5 minutes, 10 minutes, 20 minutes and 60 minutes • T. rubrum suspension and addition of P18 peptide with a final concentration in the 1.5 ml reaction vessel of 500 ppm after 5 minutes, 10 minutes, 20 minutes and 60 minutes • T. rubrum suspension and addition of P18 peptide with a final concentration in the 1.5 ml reaction vessel of 1000 ppm after 5 minutes, 10 minutes, 20 minutes and 60 minutes • T. rubrum suspension and addition of ZPT with a final concentration in the 1.5 ml reaction vessel of 50 ppm after 5 minutes, 10 minutes, 20 minutes and 60 minutes • T. rubrum suspension and addition of ZPT with a final concentration in the 1.5 ml reaction vessel of 100 ppm after 5 minutes, 10 minutes, 20 minutes and 60 minutes • T. rubrum suspension and addition of ZPT with a final concentration in the 1.5 ml reaction vessel of 200 ppm after 5 minutes, 10 minutes, 20 minutes and 60 minutes • T. rubrum suspension and addition of ZPT with a final concentration in the 1.5 ml reaction vessel of 500 ppm after 5 minutes, 10 minutes, 20 minutes and 60 minutes • T. rubrum suspension and addition of ZPT with a final concentration in the 1.5 ml reaction vessel of 1000 ppm after 5 minutes, 10 minutes, 20 minutes and 60 minutes
(§3) The 1.5 ml reaction vessels were incubated at room temperature.
After the incubation times specified, the colony forming units (CFU) were determined by streaking 1 μl of each of the suspensions diluted with 20 μl of MEP medium and, after incubation for 2 days, counting the colonies.

[2] = test system: Escherichia coli (Stratagene, BLR); test: Short-term effect (CFU); format: cell-based
Procedure: as §1
LB growth medium (Becton, Dickinson and Company, Sparks, USA) […] make up to 1 liter, set pH 7
The growth test was effected as follows: 10 ml of LB medium were inoculated with E. coli and incubated at 37° C. and 200 rpm overnight.
1.5 ml reaction vessels were each filled with 1 ml of LB medium and inoculated with the E. coli suspension from the overnight culture. The E. coli suspension was adjusted at the start of the experiment to an optical density, measured at 600 nm, of 0.1. The concentration of the peptide solution in water or ZPT solution (zinc pyrithione, >96%, Sigma Aldrich) dissolved in DMSO was 2% (w/w).
as §2, with “E. coli” for “T. rubrum”
as §3
After the incubation times specified, the colony forming units (CFU) were determined by streaking 1 μl of each of the suspensions diluted in 20 μl of LB medium and, after incubation for 2 days, counting the colonies.

## H-KWKLFKKIPKFLHLAKKF-NH2 [P18, H-KWKLFKKIPKFLHLAKKF-NH2]
[1]; 50 ppm, 5 minutes
  Colony forming units after the incubation time specified: 59 CFU
[1]; 50 ppm, 10 minutes
  Colony forming units after the incubation time specified: 55 CFU
[1]; 50 ppm, 20 minutes
  Colony forming units after the incubation time specified: 35 CFU
[1]; 50 ppm, 60 minutes
  Colony forming units after the incubation time specified: 23 CFU
[1]; 100 ppm, 5 minutes
  Colony forming units after the incubation time specified: 41 CFU
[1]; 100 ppm, 10 minutes
  Colony forming units after the incubation time specified: 22 CFU
[1]; 100 ppm, 20 minutes
  Colony forming units after the incubation time specified: 36 CFU
[1]; 100 ppm, 60 minutes
  Colony forming units after the incubation time specified: 18 CFU
[1]; 200 ppm, 5 minutes
  Colony forming units after the incubation time specified: 32 CFU
[1]; 200 ppm, 10 minutes
  Colony forming units after the incubation time specified: 39 CFU
[1]; 200 ppm, 20 minutes
  Colony forming units after the incubation time specified: 24 CFU
[1]; 200 ppm, 60 minutes
  Colony forming units after the incubation time specified: 5 CFU
[1]; 500 ppm, 5 minutes
  Colony forming units after the incubation time specified: 30 CFU
[1]; 500 ppm, 10 minutes
  Colony forming units after the incubation time specified: 18 CFU
[1]; 500 ppm, 20 minutes
  Colony forming units after the incubation time specified: 9 CFU
[1]; 500 ppm, 60 minutes
  Colony forming units after the incubation time specified: 1 CFU
[1]; 1000 ppm, 5 minutes
  Colony forming units after the incubation time specified: 17 CFU
[1]; 1000 ppm, 10 minutes
  Colony forming units after the incubation time specified: 18 CFU
[1]; 1000 ppm, 20 minutes
  Colony forming units after the incubation time specified: 10 CFU
[1]; 1000 ppm, 60 minutes
  Colony forming units after the incubation time specified: 2 CFU
[1]; cell count 10 times higher (data not shown)
  Factor of reduction of the living cell count: ≤ 2
[1]; concentration range studied (50-1000 ppm), first 60 minutes
  Factor of reduction of the living cell count: ≤ 20
[2]; 50 ppm, 5 minutes
  Colony forming units after the incubation time specified: 2000 ± 0 CFU
[2]; 50 ppm, 10 minutes
  Colony forming units after the incubation time specified: 2000 ± 0 CFU
[2]; 50 ppm, 20 minutes
  Colony forming units after the incubation time specified: 2000 ± 0 CFU
[2]; 50 ppm, 60 minutes
  Colony forming units after the incubation time specified: 1208 ± 532 CFU
[2]; 100 ppm, 5 minutes
  Colony forming units after the incubation time specified: 2000 ± 0 CFU
[2]; 100 ppm, 10 minutes
  Colony forming units after the incubation time specified: 2000 ± 0 CFU
[2]; 100 ppm, 20 minutes
  Colony forming units after the incubation time specified: 1836 ± 108 CFU
[2]; 100 ppm, 60 minutes
  Colony forming units after the incubation time specified: 726 ± 88 CFU
[2]; 200 ppm, 5 minutes
  Colony forming units after the incubation time specified: 2000 ± 0 CFU
[2]; 200 ppm, 10 minutes
  Colony forming units after the incubation time specified: 2000 ± 0 CFU
[2]; 200 ppm, 20 minutes
  Colony forming units after the incubation time specified: 1310 ± 144 CFU
[2]; 200 ppm, 60 minutes
  Colony forming units after the incubation time specified: 192 ± 56 CFU
[2]; 500 ppm, 5 minutes
  Colony forming units after the incubation time specified: 2000 ± 0 CFU
[2]; 500 ppm, 10 minutes
  Colony forming units after the incubation time specified: 2000 ± 0 CFU
[2]; 500 ppm, 20 minutes
  Colony forming units after the incubation time specified: 816 ± 96 CFU
[2]; 500 ppm, 60 minutes
  Colony forming units after the incubation time specified: 24 ± 16 CFU
[2]; 1000 ppm, 5 minutes
  Colony forming units after the incubation time specified: 2000 ± 0 CFU
[2]; 1000 ppm, 10 minutes
  Colony forming units after the incubation time specified: 2000 ± 0 CFU
[2]; 1000 ppm, 20 minutes
  Colony forming units after the incubation time specified: 369 ± 383 CFU
[2]; 1000 ppm, 60 minutes
  Colony forming units after the incubation time specified: 6 ± 2 CFU

## zinc pyrithione [ZPT]
[1]; 50-1000 ppm, up to 60 minutes
  Inhibition in words: no significant inhibition
[1]; 50 ppm, 5 minutes
  Colony forming units after the incubation time specified: 44 CFU
[1]; 50 ppm, 10 minutes
  Colony forming units after the incubation time specified: 51 CFU
[1]; 50 ppm, 20 minutes
  Colony forming units after the incubation time specified: 51 CFU
[1]; 50 ppm, 60 minutes
  Colony forming units after the incubation time specified: 55 CFU
[1]; 100 ppm, 5 minutes
  Colony forming units after the incubation time specified: 38 CFU
[1]; 100 ppm, 10 minutes
  Colony forming units after the incubation time specified: 54 CFU
[1]; 100 ppm, 20 minutes
  Colony forming units after the incubation time specified: 50 CFU
[1]; 100 ppm, 60 minutes
  Colony forming units after the incubation time specified: 48 CFU
[1]; 200 ppm, 5 minutes
  Colony forming units after the incubation time specified: 44 CFU
[1]; 200 ppm, 10 minutes
  Colony forming units after the incubation time specified: 51 CFU
[1]; 200 ppm, 20 minutes
  Colony forming units after the incubation time specified: 56 CFU
[1]; 200 ppm, 60 minutes
  Colony forming units after the incubation time specified: 49 CFU
[1]; 500 ppm, 5 minutes
  Colony forming units after the incubation time specified: 43 CFU
[1]; 500 ppm, 10 minutes
  Colony forming units after the incubation time specified: 47 CFU
[1]; 500 ppm, 20 minutes
  Colony forming units after the incubation time specified: 51 CFU
[1]; 500 ppm, 60 minutes
  Colony forming units after the incubation time specified: 44 CFU
[1]; 1000 ppm, 5 minutes
  Colony forming units after the incubation time specified: 52 CFU
[1]; 1000 ppm, 10 minutes
  Colony forming units after the incubation time specified: 62 CFU
[1]; 1000 ppm, 20 minutes
  Colony forming units after the incubation time specified: 47 CFU
[1]; 1000 ppm, 60 minutes
  Colony forming units after the incubation time specified: 48 CFU
[2]; 50-1000 ppm, up to 60 minutes
  Inhibition in words: no significant inhibition
[2]; 50 ppm, 5 minutes
  Colony forming units after the incubation time specified: 2000 ± 0 CFU
[2]; 50 ppm, 10 minutes
  Colony forming units after the incubation time specified: 2000 ± 0 CFU
[2]; 50 ppm, 20 minutes
  Colony forming units after the incubation time specified: 2000 ± 0 CFU
[2]; 50 ppm, 60 minutes
  Colony forming units after the incubation time specified: 2000 ± 0 CFU
[2]; 100 ppm, 5 minutes
  Colony forming units after the incubation time specified: 2000 ± 0 CFU
[2]; 100 ppm, 10 minutes
  Colony forming units after the incubation time specified: 2000 ± 0 CFU
[2]; 100 ppm, 20 minutes
  Colony forming units after the incubation time specified: 2000 ± 0 CFU
[2]; 100 ppm, 60 minutes
  Colony forming units after the incubation time specified: 2000 ± 0 CFU
[2]; 200 ppm, 5 minutes
  Colony forming units after the incubation time specified: 2000 ± 0 CFU
[2]; 200 ppm, 10 minutes
  Colony forming units after the incubation time specified: 2000 ± 0 CFU
[2]; 200 ppm, 20 minutes
  Colony forming units after the incubation time specified: 2000 ± 0 CFU
[2]; 200 ppm, 60 minutes
  Colony forming units after the incubation time specified: 2000 ± 0 CFU
[2]; 500 ppm, 5 minutes
  Colony forming units after the incubation time specified: 2000 ± 0 CFU
[2]; 500 ppm, 10 minutes
  Colony forming units after the incubation time specified: 2000 ± 0 CFU
[2]; 500 ppm, 20 minutes
  Colony forming units after the incubation time specified: 2000 ± 0 CFU
[2]; 500 ppm, 60 minutes
  Colony forming units after the incubation time specified: 2000 ± 0 CFU
[2]; 1000 ppm, 5 minutes
  Colony forming units after the incubation time specified: 2000 ± 0 CFU
[2]; 1000 ppm, 10 minutes
  Colony forming units after the incubation time specified: 2000 ± 0 CFU
[2]; 1000 ppm, 20 minutes
  Colony forming units after the incubation time specified: 2000 ± 0 CFU
[2]; 1000 ppm, 60 minutes
  Colony forming units after the incubation time specified: 2000 ± 0 CFU
